Starred links: 1 amine or outer side, 2 acyl side, 3 side chain; linkers in the order of their positions; H or OH if unused. Non-standard residues stand in square brackets, D forms with d. Residues, ends and D or L forms follow the SMILES beside them. ξ: configuration not given here. *: point of attachment. X45 = O=C([C@@H]1C2CC2CN1[*:1])[*:2]; Hyp = O=C(O)[CH]1C[CH](O)CN1; Abu = CC[CH](N)C(=O)O; Bz = O=C(c1ccccc1)*; ξAbu = CCC(N)C(=O)O; Bn = c1ccc(C*)cc1
Molecular target: T1, HCV NS3 protease (Hepatitis C virus genotype 1a, UniProt P27958)
T1 construct: more particularly HCV NS3 proteases
Test: Enzyme inhibition of HCV NS3 serine protease (cleavage of peptide substrate / EDVV AbuC-p-nitroanilide, with or without NS4A)
Format: biochemical
Conditions: Enzyme inhibition data; Ki from rate vs [inhibitor] plots, Morrison tight binding competitive inhibition fit; 30 C, pH 7.8; read-out: Ki
Summary of the method: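 Spectrophotometric assay at 30 °C following pNA release at 405 nm from EDVV AbuC-pNA substrate, with or without NS4A. Ki from rate versus [inhibitor] fitted to Morrison's tight-binding competitive inhibition equation; Kii/Kis from mixed-inhibition fits; values reported in μM.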

T1 sequence (P27958 1027-1208): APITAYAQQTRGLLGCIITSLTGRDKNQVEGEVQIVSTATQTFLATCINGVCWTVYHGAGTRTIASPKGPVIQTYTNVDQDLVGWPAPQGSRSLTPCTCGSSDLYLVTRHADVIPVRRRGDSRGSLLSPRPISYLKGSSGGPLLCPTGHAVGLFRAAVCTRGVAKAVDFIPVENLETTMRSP

Ki [µM]	SMILES
1 to 100	CCC(C=O)NC(=O)C1CC(OCc2ccccc2)CN1C(=O)C(NC(=O)c1ccccc1)C(C)C (stereo not drawn) [Compound 149] (Bz-Val-[Hyp](Bn)-[Abu]-aldehyde; configuration not given here)
> 100	CCC(C=O)NC(=O)C1CC(OCc2ccccc2)CN1C(=O)C(NC(=O)Cc1ccc(NC(C)=O)cc1)C(C)C (stereo not drawn) [Compound 152]
1 to 100	CCC(C=O)NC(=O)C1CC(OCc2ccccc2)CN1C(=O)C(NC(=O)c1ccc[nH]1)C(C)C (stereo not drawn) [Compound 153]
1 to 100	CCC(C=O)NC(=O)C1CC(OCc2ccccc2)CN1C(=O)C(NC(=O)c1cc2ccccc2[nH]1)C(C)C (stereo not drawn) [Compound 154]
1 to 100	CCC(C=O)NC(=O)C1CC(OCc2ccccc2)CN1C(=O)C(NC(=O)Cc1csc(N)n1)C(C)C (stereo not drawn) [Compound 155]
1 to 100	CCC(C=O)NC(=O)C1CC(OCc2ccccc2)CN1C(=O)C(NC(=O)c1ccc(O)c(Cl)c1)C(C)C (stereo not drawn) [Compound 156]
1 to 100	CCC(C=O)NC(=O)C1CC(OCc2ccccc2)CN1C(=O)C(NC(=O)c1nccc2ccccc12)C(C)C (stereo not drawn) [Compound 158]
1 to 100	CCC(C=O)NC(=O)C1CC(OCc2ccccc2)CN1C(=O)C(NC(=O)c1cccc2ccccc12)C(C)C (stereo not drawn) [Compound 159]
> 100	CCC(C=O)NC(=O)C1CC(OCc2ccccc2)CN1C(=O)C(NC(=O)Cc1ccccc1[N+](=O)[O-])C(C)C (stereo not drawn) [Compound 161]
> 100	CCC(C=O)NC(=O)C1CC(OCc2ccccc2)CN1C(=O)C(NC(=O)Cc1ccsc1)C(C)C (stereo not drawn) [Compound 163]
> 100	CCC(C=O)NC(=O)C1CC(OCc2ccccc2)CN1C(=O)C(NC(=O)C(OC)c1ccccc1)C(C)C (stereo not drawn) [Compound 164]
> 100	CCC(C=O)NC(=O)C1CC(OCc2ccccc2)CN1C(=O)C(NC(=O)CCCc1ccccc1)C(C)C (stereo not drawn) [Compound 166]
1 to 100	CCC(C=O)NC(=O)C1CC(OCc2ccccc2)CN1C(=O)C(NC(=O)c1c(O)ccc2ccccc12)C(C)C (stereo not drawn) [Compound 168]
> 100	CCC(C=O)NC(=O)C1CC(OCc2ccccc2)CN1C(=O)C(NC(=O)COc1ccccc1C=O)C(C)C (stereo not drawn) [Compound 169]
> 100	CCC(C=O)NC(=O)C1CC(OCc2ccccc2)CN1C(=O)C(NC(=O)CCC(=O)c1ccccc1)C(C)C (stereo not drawn) [Compound 170]
> 100	CCC(C=O)NC(=O)C1CC(OCc2ccccc2)CN1C(=O)C(NC(=O)CCOc1ccccc1)C(C)C (stereo not drawn) [Compound 171]
> 100	CCCCC(C(=O)O)C(=O)NC(C(=O)N1CC(OCc2ccccc2)CC1C(=O)NC(C=O)CC)C(C)C (stereo not drawn) [Compound 172]
1 to 100	CCCC(C(=O)NC(C(=O)N1CC(OCc2ccccc2)CC1C(=O)NC(C=O)CC)C(C)C)c1ccccc1 (stereo not drawn) [Compound 174]
1 to 100	CCC(C=O)NC(=O)C1CC(OCc2ccccc2)CN1C(=O)C(NC(=O)c1c[nH]c2ccccc12)C(C)C (stereo not drawn) [Compound 175]
> 100	CCC(C=O)NC(=O)C1CC(OCc2ccccc2)CN1C(=O)C(NC(=O)C1CCCC1c1ccccc1)C(C)C (stereo not drawn) [Compound 177]
> 100	CCC(C=O)NC(=O)C1CC(OCc2ccccc2)CN1C(=O)C(NC(=O)c1c(-c2ccccc2Cl)noc1C)C(C)C (stereo not drawn) [Compound 182]
1 to 100	CCC(C=O)NC(=O)C1CC(OCc2ccccc2)CN1C(=O)C(NC(=O)c1c2c(nc3ccccc13)CCCC2)C(C)C (stereo not drawn) [Compound 183]
> 100	CCC(C=O)NC(=O)C1CC(OCc2ccccc2)CN1C(=O)C(NC(=O)c1c(-c2c(Cl)cccc2Cl)noc1C)C(C)C (stereo not drawn) [Compound 186]
> 100	CCC(C=O)NC(=O)C1CC(OCc2ccccc2)CN1C(=O)C(NC(=O)c1cc(C)oc1C)C(C)C (stereo not drawn) [Compound 189]
> 100	CCC(C=O)NC(=O)C1CC(OCc2ccccc2)CN1C(=O)C(NC(=O)c1c(C)cc(C)cc1C)C(C)C (stereo not drawn) [Compound 191]
> 100	CCC(C=O)NC(=O)C1CC(OCc2ccccc2)CN1C(=O)C(NC(=O)c1cccc(C)c1O)C(C)C (stereo not drawn) [Compound 192]
> 100	CCC(C=O)NC(=O)C1CC(OCc2ccccc2)CN1C(=O)C(NC(=O)c1c(C)cccc1C)C(C)C (stereo not drawn) [Compound 193]
1 to 100	CCC(C=O)NC(=O)C1CC(OCc2ccccc2)CN1C(=O)C(NC(=O)c1ccccc1Br)C(C)C (stereo not drawn) [Compound 195]
1 to 100	CCOc1ccc2ccccc2c1C(=O)NC(C(=O)N1CC(OCc2ccccc2)CC1C(=O)NC(C=O)CC)C(C)C (stereo not drawn) [Compound 197]

SMILES	Ki [µM]
CCC(C=O)NC(=O)[C@@H]1C2CC2CN1C(=O)[C@@H](NC(=O)[C@@H](NC(=O)[C@H](CC(=O)O)NC(=O)[C@H](CCC(=O)O)NC(C)=O)C(C)C)C(C)C (stereo partly drawn) [Compound 198] (Ac-EDVV[X45][ξAbu]-aldehyde)	< 1

Reference: patent publication US7388017B2, “Inhibitors of serine proteases, particularly hepatitis C virus NS3 protease” (Vertex Pharmaceuticals Incorporated, priority 1996, dated 2008)
